Experimental data published in patent US7772183B2 (Bristol-Myers Squibb Company, priority 2005, dated 2010).
pEC50, pIC50: −log10 of the molar value.

Tests used:
[1] = biological target: T1, HCV NS3/4A protease complex, BMS strain (UniProt P27958, species not given/STRAIN_BMS); assay: FRET peptide assay to monitor HCV NS3/4A proteolytic activity (BMS strain); assay type: biochemical, Hepatitis C virus (genotype 1a); details: NS3/4A BMS strain; read-out: IC50 Range
T1 construct: said of H77 and J4L6S; fused on or other part: A three-lysine solubilising tail at the C-terminus of NS4A and a His tag (pET21b, Ni-NTA purification)
In short: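 Recombinant NS3/4A complexes (aa 1027–1711) from H77 (1a) and J4L6S (1b) carried a three-lysine tail, C1711G and C1454S. They were expressed in E. coli BL21(DE3) (0.5 mM IPTG, 22 h, 20 °C), then purified by Ni-NTA and Superdex-S200 to >90% purity. The BMS strain was a genotype 1a clone from patient serum.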

[2] = tested on: HCV replicon in HUH-7 cells; assay: HCV replicon FRET assay; assay type: cell-based, Hepatitis C virus (strain 1b); details: Hepatitis C virus, Huh-7; HCV replicon, for compounds tested; read-out: EC50 Range
In short: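 HUH-7 cells stably carrying a genotype 1b subgenomic HCV replicon (NS3–NS5B) treated with compound for 4 days at 37° C, 0.5% DMSO final. Cytotoxicity (CC50) read by alamar Blue; cells then lysed with 10 μM FRET HCV protease peptide substrate and kinetically read (340/490 nm) for EC50.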

T1 sequence (P27958 1027-1657, change not shown, one chain of several): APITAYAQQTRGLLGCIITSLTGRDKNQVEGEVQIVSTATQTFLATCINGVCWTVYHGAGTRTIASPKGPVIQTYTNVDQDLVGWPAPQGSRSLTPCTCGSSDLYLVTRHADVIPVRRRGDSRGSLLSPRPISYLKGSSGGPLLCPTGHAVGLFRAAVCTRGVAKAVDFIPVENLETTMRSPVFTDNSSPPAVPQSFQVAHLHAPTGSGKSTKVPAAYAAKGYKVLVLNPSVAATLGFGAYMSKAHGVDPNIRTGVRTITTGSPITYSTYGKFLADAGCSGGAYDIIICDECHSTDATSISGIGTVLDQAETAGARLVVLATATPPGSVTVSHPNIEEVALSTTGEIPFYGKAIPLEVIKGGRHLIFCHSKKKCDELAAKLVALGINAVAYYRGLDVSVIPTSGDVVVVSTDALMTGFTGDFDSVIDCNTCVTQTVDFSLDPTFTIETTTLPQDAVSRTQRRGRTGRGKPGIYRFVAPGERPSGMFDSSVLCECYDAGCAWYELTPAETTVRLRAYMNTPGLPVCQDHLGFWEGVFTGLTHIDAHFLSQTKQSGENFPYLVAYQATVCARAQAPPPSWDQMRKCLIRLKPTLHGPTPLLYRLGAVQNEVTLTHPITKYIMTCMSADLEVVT

SMILES: CC(C)(C)OC(=O)N[C@H]1CCCCC/C=C\[C@@H]2C[C@@]2(C(=O)NS(=O)(=O)C2CC2)NC(=O)[C@@H]2C[C@@H](OC(=O)c3ccc4c(c3)OCO4)CN2C1=O [Compound 16, 18-(3,4-methylenedioxybenzoyloxy)-14-tert-butoxycarbonylamino-4-cyclopropylsulfonylaminocarbonyl-2,15-dioxo-3,16-diazatricyclo-[14.3.0.0^4,6]-nonadec-7-ene]
- pIC50 [1]: > 7.00
- pEC50 [2]: > 7.00
- melting point: 153 to 155 °C

SMILES: CC(C)(C)OC(=O)N[C@H]1CCCCC/C=C\[C@@H]2C[C@@]2(C(=O)NS(=O)(=O)C2CC2)NC(=O)[C@@H]2C[C@@H](OC(=O)c3cnccn3)CN2C1=O [Compound 27, 18-(pyrazinecarbonyloxy)-14-tert-butoxycarbonylamino-4-cyclopropylsulfonylaminocarbonyl-2,15-dioxo-3,16-diazatricyclo-[14.3.0.0^4,6]-nonadec-7-ene]
- pIC50 [1]: > 7.00
- pEC50 [2]: < 6.00
- melting point: 150 to 152 °C

SMILES: CC(C)(C)OC(=O)N[C@H]1CCCOC/C=C\[C@@H]2C[C@@]2(C(=O)NS(=O)(=O)C2CC2)NC(=O)[C@@H]2C[C@@H](OC(=O)NC3CCCCC3)CN2C1=O [Compound 36, 18-(cyclohexylaminocarbonyloxy)-14-tert-butoxycarbonylamino-4-cyclopropylsulfonylaminocarbonyl-2,15-dioxo-3,16-diaza-10-oxatricyclo-[14.3.0.0^4,6]-nonadec-7-ene]
- pIC50 [1]: 6.00 to 7.00
- pEC50 [2]: < 6.00
- melting point: 156 to 158 °C

SMILES: CCOC(=O)c1ccccc1NC(=O)N[C@H]1CCCCC/C=C\[C@@H]2C[C@@]2(C(=O)NS(=O)(=O)C2CC2)NC(=O)[C@@H]2C[C@@H](OC(=O)Nc3ccccc3C(=O)OCC)CN2C1=O [Compound 44]
- pIC50 [1]: > 7.00
- pEC50 [2]: 6.00 to 7.00
- melting point: 142 to 144 °C

SMILES: CC(C)(C)OC(=O)N[C@H]1COCCC/C=C\[C@@H]2C[C@@]2(C(=O)NS(=O)(=O)C2CC2)NC(=O)[C@@H]2C[C@@H](OC(=O)c3ccc(Oc4ccccc4)cc3)CN2C1=O [Compound 14, 18-(4-phenoxybenzoyloxy)-14-tert-butoxycarbonylamino-4-cyclopropylsulfonylaminocarbonyl-2,15-dioxo-3,16-diaza-12-oxatricyclo-[14.3.0.0^4,6]-nonadec-7-ene]
- pIC50 [1]: 6.00 to 7.00
- pEC50 [2]: 6.00 to 7.00
- melting point: 207 to 209 °C

SMILES: COc1cccc(C(=O)O[C@@H]2C[C@H]3C(=O)N[C@]4(C(=O)NS(=O)(=O)C5CC5)C[C@H]4/C=C\COCCC[C@H](NC(=O)OC(C)(C)C)C(=O)N3C2)c1 [Compound 9, 18-(3-methoxybenzoyloxy)-14-tert-butoxycarbonylamino-4-cyclopropylsulfonylaminocarbonyl-2,15-dioxo-3,16-diaza-10-oxatricyclo-[14.3.0.0^4,6]-nonadec-7-ene]
- pIC50 [1]: > 7.00
- pEC50 [2]: 6.00 to 7.00
- melting point: 149 to 151 °C

SMILES: CC(C)(C)OC(=O)N[C@H]1CCCOC/C=C\[C@@H]2C[C@@]2(C(=O)NS(=O)(=O)C2CC2)NC(=O)[C@@H]2C[C@@H](OC(=O)C3CCCCC3)CN2C1=O [Compound 3, 18-cyclohexanecarbonyloxy-14-tert-butoxycarbonylamino-4-cyclopropylsulfonylaminocarbonyl-2,15-dioxo-3,16-diaza-10-oxatricyclo-[14.3.0.0^4,6]-nonadec-7-ene]
- pIC50 [1]: > 7.00
- pEC50 [2]: < 6.00
- melting point: 128 to 130 °C

SMILES: CC(C)(C)OC(=O)N[C@H]1CCCOC/C=C\[C@@H]2C[C@@]2(C(=O)NS(=O)(=O)C2CC2)NC(=O)[C@@H]2C[C@@H](OC(=O)CC3CCCCC3)CN2C1=O [Compound 6, 18-cyclohexaneacetyloxy-14-tert-butoxycarbonylamino-4-cyclopropylsulfonylaminocarbonyl-2,15-dioxo-3,16-diaza-10-oxatricyclo-[14.3.0.0^4,6]-nonadec-7-ene]
- pIC50 [1]: > 7.00
- pEC50 [2]: < 6.00
- melting point: 107 to 109 °C

SMILES: CC(C)(C)OC(=O)N[C@H]1CCCCC/C=C\[C@@H]2C[C@@]2(C(=O)NS(=O)(=O)C2CC2)NC(=O)[C@@H]2C[C@@H](OC(=O)c3ccccn3)CN2C1=O [Compound 28, 18-(picolinoyloxy)-14-tert-butoxycarbonylamino-4-cyclopropylsulfonylaminocarbonyl-2,15-dioxo-3,16-diazatricyclo-[14.3.0.0^4,6]-nonadec-7-ene]
- pIC50 [1]: > 7.00
- pEC50 [2]: < 6.00
- melting point: 164 to 166 °C

SMILES: CC(C)(C)OC(=O)N[C@H]1CCCCC/C=C\[C@@H]2C[C@@]2(C(=O)NS(=O)(=O)C2CC2)NC(=O)[C@@H]2C[C@@H](OC(=O)c3cccnc3)CN2C1=O [Compound 30, 18-(nicotinoyloxy)-14-tert-butoxycarbonylamino-4-cyclopropylsulfonylaminocarbonyl-2,15-dioxo-3,16-diazatricyclo-[14.3.0.0^4,6]-nonadec-7-ene]
- pIC50 [1]: > 7.00
- pEC50 [2]: < 6.00
- melting point: 157 to 159 °C

SMILES: CC(C)(C)OC(=O)N[C@H]1COCCC/C=C\[C@@H]2C[C@@]2(C(=O)NS(=O)(=O)C2CC2)NC(=O)[C@@H]2C[C@@H](OC(=O)N3CCc4ccccc43)CN2C1=O [Compound 45, 18-(indolinecarbonyloxy)-14-tert-butoxycarbonylamino-4-cyclopropylsulfonylaminocarbonyl-2,15-dioxo-3,16-diaza-12-oxatricyclo-[14.3.0.0^4,6]-nonadec-7-ene]
- pIC50 [1]: > 7.00
- pEC50 [2]: 6.00 to 7.00
- melting point: 128 to 130 °C

SMILES: COc1ccccc1C(=O)O[C@@H]1C[C@H]2C(=O)N[C@]3(C(=O)NS(=O)(=O)C4CC4)C[C@H]3/C=C\COCCC[C@H](NC(=O)OC(C)(C)C)C(=O)N2C1 [Compound 7, 18-(2-methoxybenzoyloxy)-14-tert-butoxycarbonylamino-4-cyclopropylsulfonylaminocarbonyl-2,15-dioxo-3,16-diaza-10-oxa-tricyclo-[14.3.0.0^4,6]-nonadec-7-ene]
- pIC50 [1]: > 7.00
- pEC50 [2]: < 6.00
- melting point: 144 to 146 °C

SMILES: COc1ccc(C(=O)O[C@@H]2C[C@H]3C(=O)N[C@]4(C(=O)NS(=O)(=O)C5CC5)C[C@H]4/C=C\COCCC[C@H](NC(=O)OC(C)(C)C)C(=O)N3C2)cc1 [Compound 10, 18-(4-methoxybenzoyloxy)-14-tert-butoxycarbonylamino-4-cyclopropylsulfonylaminocarbonyl-2,15-dioxo-3,16-diaza-10-oxatricyclo-[14.3.0.0^4,6]-nonadec-7-ene]
- pIC50 [1]: > 7.00
- pEC50 [2]: 6.00 to 7.00
- melting point: 145 to 147 °C

SMILES: CC(C)(C)OC(=O)N[C@H]1COCCC/C=C\[C@@H]2C[C@@]2(C(=O)NS(=O)(=O)C2CC2)NC(=O)[C@@H]2C[C@@H](OC(=O)c3ccccc3)CN2C1=O [Compound 12, 18-benzoyloxy-14-tert-butoxycarbonylamino-4-cyclopropylsulfonylaminocarbonyl-2,15-dioxo-3,16-diaza-12-oxatricyclo-[14.3.0.0^4,6]-nonadec-7-ene]
- pIC50 [1]: > 7.00
- pEC50 [2]: 6.00 to 7.00
- melting point: 135 to 137 °C

SMILES: COC(=O)c1ccc(C(=O)O[C@@H]2C[C@H]3C(=O)N[C@]4(C(=O)NS(=O)(=O)C5CC5)C[C@H]4/C=C\CCCCC[C@H](NC(=O)OC(C)(C)C)C(=O)N3C2)cc1 [Compound 31]
- pIC50 [1]: > 7.00
- pEC50 [2]: > 7.00
- melting point: 154 to 156 °C

SMILES: CC(C)(C)OC(=O)N[C@H]1CCCCC/C=C\[C@@H]2C[C@@]2(C(=O)NS(=O)(=O)C2CC2)NC(=O)[C@@H]2C[C@@H](OC(=O)c3ccc4ccccc4c3)CN2C1=O [Compound 18, 18-(2-naphthoyloxy)-14-tert-butoxycarbonylamino-4-cyclopropylsulfonylaminocarbonyl-2,15-dioxo-3,16-diazatricyclo-[14.3.0.0^4,6]-nonadec-7-ene]
- pIC50 [1]: > 7.00
- pEC50 [2]: > 7.00
- melting point: 156 to 158 °C

SMILES: CC(C)(C)OC(=O)N[C@H]1CCCCC/C=C\[C@@H]2C[C@@]2(C(=O)NS(=O)(=O)C2CC2)NC(=O)[C@@H]2C[C@@H](OC(=O)c3ccc(-n4cccn4)cc3)CN2C1=O [Compound 32, 18-(4-[1-pyrazolyl]benzoyloxy)-14-tert-butoxycarbonylamino-4-cyclopropylsulfonylaminocarbonyl-2,15-dioxo-3,16-diazatricyclo-[14.3.0.0^4,6]-nonadec-7-ene]
- pIC50 [1]: > 7.00
- pEC50 [2]: > 7.00
- melting point: 167 to 169 °C

SMILES: CC(C)(C)OC(=O)N[C@H]1COCCC/C=C\[C@@H]2C[C@@]2(C(=O)NS(=O)(=O)C2CC2)NC(=O)[C@@H]2C[C@@H](OC(=O)c3cccc(Oc4ccccc4)c3)CN2C1=O [Compound 13, 18-(3-phenoxybenzoyloxy)-14-tert-butoxycarbonylamino-4-cyclopropylsulfonylaminocarbonyl-2,15-dioxo-3,16-diaza-12-oxatricyclo-[14.3.0.0^4,6]-nonadec-7-ene]
- pIC50 [1]: > 7.00
- pEC50 [2]: 6.00 to 7.00
- melting point: 123 to 125 °C

SMILES: CCCC(C)C(=O)O[C@@H]1C[C@H]2C(=O)N[C@]3(C(=O)NS(=O)(=O)C4CC4)C[C@H]3/C=C\COCCC[C@H](NC(=O)OC(C)(C)C)C(=O)N2C1 (stereo partly drawn) [Compound 2, 18-(2-methylvaleryloxy)-14-tert-butoxycarbonylamino-4-cyclopropylsulfonylaminocarbonyl-2,15-dioxo-3,16-diaza-10-oxatricyclo-[14.3.0.0^4,6]-nonadec-7-ene]
- pIC50 [1]: > 7.00
- pEC50 [2]: < 6.00
- melting point: 121 to 123 °C
